The target in the test is T1, PPARγ (Homo sapiens, UniProt P37231).
T1 construct: gene PPARG
T1 sequence (P37231 231-505 limits assumed): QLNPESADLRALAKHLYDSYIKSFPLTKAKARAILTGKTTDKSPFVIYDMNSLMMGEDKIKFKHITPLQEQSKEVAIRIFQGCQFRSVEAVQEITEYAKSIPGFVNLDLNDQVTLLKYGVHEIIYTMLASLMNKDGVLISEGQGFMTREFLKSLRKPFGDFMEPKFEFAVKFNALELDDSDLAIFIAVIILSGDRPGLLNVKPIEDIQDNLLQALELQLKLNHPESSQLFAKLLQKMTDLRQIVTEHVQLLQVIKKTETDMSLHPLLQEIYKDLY
Put plainly: fluorescence polarization competitive binding assay (PolarScreen PPARγ Green).

Molecules are shown by their SMILES.

For `CCCCC/C=C\C=C\C(O)CCCCCCCC(=O)O` (centres unmarked) [9-hydroxyoctadecadienoic acid], the IC50 worked out at 1800 nM.

Compound `O=C(Nc1ccccc1)c1cc([N+](=O)[O-])ccc1Cl` [GW9662] registered an IC50 of 22.3 nM.

The values above are taken from publication PMC11673078, “DT-13 Mediates Ligand-Dependent Activation of PPARγ Response Elements In Vitro” (Biology, 2024).
